Data on two molecules can be found in patent US20160374911A1, “PLANT EXTRACT COMPOSITION FOR SKIN WHITENING AND REDUCING MELANIN AS WELL AS APPLICATION THEREOF” (CALIWAY BIOPHARMACEUTICALS CO., LTD., priority 2015, published 2016).

The experiment addresses T1, tyrosinase activity in mouse melanoma B16-F10 cells (Mus musculus, UniProt P11344).
T1 construct: Mouse melanoma B16-F10 cells were used; endogenous in cells; host or cells: mouse melanoma B16-F10 cells
T1 sequence (P11344 19-533): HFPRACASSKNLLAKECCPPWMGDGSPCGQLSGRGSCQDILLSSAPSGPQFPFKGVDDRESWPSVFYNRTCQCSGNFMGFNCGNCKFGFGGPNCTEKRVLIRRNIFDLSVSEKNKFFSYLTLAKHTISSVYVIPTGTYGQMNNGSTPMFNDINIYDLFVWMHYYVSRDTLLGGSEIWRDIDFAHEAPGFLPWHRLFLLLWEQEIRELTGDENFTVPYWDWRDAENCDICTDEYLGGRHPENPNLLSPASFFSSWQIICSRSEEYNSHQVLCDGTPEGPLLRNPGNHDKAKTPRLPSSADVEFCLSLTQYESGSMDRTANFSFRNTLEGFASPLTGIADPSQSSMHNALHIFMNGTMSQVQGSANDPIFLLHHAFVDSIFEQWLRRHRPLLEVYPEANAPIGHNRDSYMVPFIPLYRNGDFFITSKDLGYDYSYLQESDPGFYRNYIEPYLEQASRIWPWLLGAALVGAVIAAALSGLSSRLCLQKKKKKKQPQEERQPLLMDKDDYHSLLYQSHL
In words: Inhibition of tyrosinase (melanogenesis induction firstly, then administration), L-DOPA conversion. In kind it is cell-based. The conditions noted are these: 250 ppm arbutin, 6 ppm resveratrol, 8 ppm curcumin, 8 ppm compositions; 48 hours after α-MSH; absorbance 405 nm within 60 minutes.

With `OC[C@H]1O[C@@H](Oc2ccc(O)cc2)[C@H](O)[C@@H](O)[C@@H]1O` [arbutin], the “activity of tyrosinase compared with control group (in words)” value is “reduced the activity of tyrosinase”.

On to `COc1cc(/C=C/C(=O)CC(=O)/C=C/c2ccc(O)c(OC)c2)ccc1O` [curcumin], for which the “activity of tyrosinase compared with control group (in words)” value is given as “reduced the activity of tyrosinase”.
